According to ChEMBL document CHEMBL5113524, “Substrates and Inhibitors of the Organic Cation Transporter 3 and Comparison with OCT1 and OCT2” (J Med Chem, 2022):

How the values were obtained:
OCT3 (SLC22A3) [1] = molecular target: T1, OCT3 (SLC22A3) (Homo sapiens, UniProt O75751); assay: Substrate activity at human OCT3 overexpressed in HEK293 cells assessed as uptake ratio incubated for 2 mins by LC-MS/MS analysis; format: ADME, cell-based; details: HEK293 cells overexpressing OCT3
T1 sequence (O75751 whole entry): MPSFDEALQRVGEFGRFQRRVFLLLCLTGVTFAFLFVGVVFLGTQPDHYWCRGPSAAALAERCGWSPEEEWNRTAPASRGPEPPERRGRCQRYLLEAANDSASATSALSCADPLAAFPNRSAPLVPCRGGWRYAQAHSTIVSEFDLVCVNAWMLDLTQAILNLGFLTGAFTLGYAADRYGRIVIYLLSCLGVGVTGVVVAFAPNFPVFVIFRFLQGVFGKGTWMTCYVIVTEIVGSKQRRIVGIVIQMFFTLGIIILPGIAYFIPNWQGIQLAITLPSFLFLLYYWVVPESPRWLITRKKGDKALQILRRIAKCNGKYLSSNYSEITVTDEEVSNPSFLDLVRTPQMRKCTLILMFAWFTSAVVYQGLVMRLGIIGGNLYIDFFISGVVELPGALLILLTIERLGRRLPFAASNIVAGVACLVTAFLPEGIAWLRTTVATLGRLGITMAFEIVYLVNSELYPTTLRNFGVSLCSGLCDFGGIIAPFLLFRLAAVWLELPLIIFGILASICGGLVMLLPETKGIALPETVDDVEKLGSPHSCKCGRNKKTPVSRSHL

OCT3 (SLC22A3) [2] = molecular target: T1, OCT3 (SLC22A3); assay: Inhibition of human OCT3 mediated ASP+ uptake overexpressed in HEK293 cells at 20 uM incubated for 5 mins by HPLC-MS/MS analysis relative to control; format: cell-based; details: HEK293 cells overexpressing OCT3, probe ASP+
OCT3 (SLC22A3) [3] = molecular target: T1, OCT3 (SLC22A3); assay: Inhibition of human OCT3 mediated methylscopolamine uptake overexpressed in HEK293 cells at 20 uM incubated for 5 mins by HPLC-MS/MS analysis relative to control; format: cell-based; details: HEK293 cells overexpressing OCT3, probe methylscopolamine
OCT3 (SLC22A3) [4] = molecular target: T1, OCT3 (SLC22A3); assay: Inhibition of human OCT3 mediated (S,S)-Ethambutol uptake overexpressed in HEK293 cells at 20 uM incubated for 5 mins by HPLC-MS/MS analysis relative to control; format: cell-based; details: HEK293 cells overexpressing OCT3, probe (S,S)-Ethambutol
OCT3 (SLC22A3) [5] = molecular target: T1, OCT3 (SLC22A3); assay: Inhibition of human OCT3 mediated Famotidine uptake overexpressed in HEK293 cells at 20 uM incubated for 5 mins by HPLC-MS/MS analysis relative to control; format: cell-based; details: HEK293 cells overexpressing OCT3, probe Famotidine
OCT3 (SLC22A3) [6] = molecular target: T1, OCT3 (SLC22A3); assay: Inhibition of human OCT3 mediated N-Ethyllidocaine uptake overexpressed in HEK293 cells at 20 uM incubated for 5 mins by HPLC-MS/MS analysis relative to control; format: cell-based; details: HEK293 cells overexpressing OCT3, probe N-Ethyllidocaine
[7] = molecular target: T2, Solute carrier family 22 member 3 (Homo sapiens, UniProt O75751); assay: (§1) Inhibition of human OCT3 overexpressed in HEK293 cells assessed as intracellularly accumulation of ASP+ at 20 uM incubated for 5 mins by HPLC-MS/MS analysis relative to control; format: cell-based; details: hek293, 5 min, 20 µM
T2 sequence (O75751 whole entry): T1 sequence (O75751 whole entry)

OCT3 (SLC22A3) [8] = molecular target: T1, OCT3 (SLC22A3); assay: Inhibition of OCT3 (unknown origin) overexpressed in HEK293 cells assessed as intracellular accumulation of ASP+ incubated for 2 mins by Analyst AD plate reader method relative to control; format: cell-based; set-up: concentration or dose not given beside the values; details: HEK293 cells overexpressing OCT3, probe ASP+
OCT3 (SLC22A3) [9] = molecular target: T1, OCT3 (SLC22A3); assay: as §1; format: cell-based; details: HEK293 cells overexpressing OCT3, probe ASP+
[10] = molecular target: Solute carrier family 22 member 2 (Homo sapiens) (UniProt O15244); assay: Inhibition of OCT2 mediated (unknown origin) assessed as intracellular accumulation of ASP+ relative to control
OCT1 = OCT1 (Homo sapiens, UniProt O15245); assay: Substrate activity at OCT1 (unknown origin) assessed as uptake ratio; format: ADME, cell-based; details: HEK293 cells
OCT2 = OCT2 (Homo sapiens, UniProt O15244); assay: Substrate activity at human OCT2 overexpressed in HEK293 cells assessed as uptake ratio incubated for 2 mins by LC-MS/MS analysis; format: ADME, cell-based; details: HEK293 cells overexpressing OCT2
OCT2, sequence (O15244 whole entry, looked up): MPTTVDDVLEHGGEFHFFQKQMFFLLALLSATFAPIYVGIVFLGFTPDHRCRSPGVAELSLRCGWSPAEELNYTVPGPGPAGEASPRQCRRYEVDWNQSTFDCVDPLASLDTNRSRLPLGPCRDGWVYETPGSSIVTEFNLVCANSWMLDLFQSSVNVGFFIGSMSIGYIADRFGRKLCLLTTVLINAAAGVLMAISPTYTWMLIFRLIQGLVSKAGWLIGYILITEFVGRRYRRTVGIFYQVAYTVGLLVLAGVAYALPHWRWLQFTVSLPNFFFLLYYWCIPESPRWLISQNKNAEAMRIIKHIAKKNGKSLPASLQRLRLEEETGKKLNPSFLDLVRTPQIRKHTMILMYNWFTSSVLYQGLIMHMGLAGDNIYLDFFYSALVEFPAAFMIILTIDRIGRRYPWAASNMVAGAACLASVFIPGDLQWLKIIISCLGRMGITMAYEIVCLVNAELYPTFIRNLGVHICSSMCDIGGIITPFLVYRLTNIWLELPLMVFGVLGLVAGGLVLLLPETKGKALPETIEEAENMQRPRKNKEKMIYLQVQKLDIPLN

OCT1, sequence (O15245 whole entry, looked up): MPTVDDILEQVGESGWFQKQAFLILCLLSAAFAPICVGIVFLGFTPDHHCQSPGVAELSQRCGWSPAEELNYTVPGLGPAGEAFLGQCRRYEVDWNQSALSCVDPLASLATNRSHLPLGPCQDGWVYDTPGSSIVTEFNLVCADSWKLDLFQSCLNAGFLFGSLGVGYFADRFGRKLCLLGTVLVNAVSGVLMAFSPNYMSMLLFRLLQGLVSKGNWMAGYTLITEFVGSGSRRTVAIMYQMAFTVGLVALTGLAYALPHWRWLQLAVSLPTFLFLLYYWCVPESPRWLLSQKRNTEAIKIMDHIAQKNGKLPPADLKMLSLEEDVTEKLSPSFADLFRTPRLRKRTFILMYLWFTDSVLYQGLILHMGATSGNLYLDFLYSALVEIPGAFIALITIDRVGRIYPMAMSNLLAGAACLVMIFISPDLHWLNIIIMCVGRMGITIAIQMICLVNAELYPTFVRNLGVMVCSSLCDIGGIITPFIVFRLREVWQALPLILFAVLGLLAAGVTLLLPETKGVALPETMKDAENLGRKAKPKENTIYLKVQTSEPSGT
Solute carrier family 22 member 2 (Homo sapiens), sequence (O15244 whole entry, looked up): as the sequence (O15244 whole entry, looked up) above

## CC[N+](CC)(CC)CC(=O)Nc1c(C)cccc1C
OCT3 (SLC22A3) [1]
  uptake ratio at 2 min: 50
OCT3 (SLC22A3) [2]
  inhibition at 5 min, 20 µM: 16%
OCT3 (SLC22A3) [3]
  inhibition at 5 min, 20 µM: 15%
OCT3 (SLC22A3) [4]
  inhibition at 5 min, 20 µM: 44%
OCT3 (SLC22A3) [5]
  inhibition at 5 min, 20 µM: 52%

## CC[N+](CC)(CC)Cc1ccccc1
OCT3 (SLC22A3) [1]
  uptake ratio at 2 min: 62.5
OCT3 (SLC22A3) [2]
  inhibition at 5 min, 20 µM: 5%
OCT3 (SLC22A3) [3]
  inhibition at 5 min, 20 µM: 49%

## CN(C)c1ccc(/C=C/c2cc[n+](C)cc2)cc1
OCT3 (SLC22A3) [3]
  inhibition at 5 min, 20 µM: 58%
OCT3 (SLC22A3) [4]
  inhibition at 5 min, 20 µM: 51%
OCT3 (SLC22A3) [6]
  inhibition at 5 min, 20 µM: 70%
OCT3 (SLC22A3) [5]
  inhibition at 5 min, 20 µM: 63%

## N=C(N)N1Cc2ccccc2C(O)C1 (stereo unspecified)
OCT3 (SLC22A3) [1]
  uptake ratio at 2 min: 38

## C[N+]1(CCC(C(N)=O)(c2ccccc2)c2ccccc2)CCCCC1
[7]
  inhibition (INH): Active

## C[N+]1(C)[C@@H]2C[C@H](OC(=O)[C@H](CO)c3ccccc3)C[C@H]1[C@@H]1O[C@@H]12
OCT3 (SLC22A3) [2]
  inhibition at 5 min, 20 µM: 0%
OCT3 (SLC22A3) [4]
  inhibition at 5 min, 20 µM: 27%
OCT3 (SLC22A3) [6]
  inhibition at 5 min, 20 µM: 21%
OCT3 (SLC22A3) [5]
  inhibition at 5 min, 20 µM: 40%

## Cc1cc(N)c2ccccc2[n+]1CCCCCCCCCC[n+]1c(C)cc(N)c2ccccc21
OCT3 (SLC22A3) [8]
  inhibition at 2 min: 66.6%

## C[N+]1(C)[C@@H]2C[C@H](OC(=O)C(O)(c3cccs3)c3cccs3)C[C@H]1[C@@H]1O[C@@H]12
OCT3 (SLC22A3) [1]
  uptake ratio at 2 min: 50

## CNCC/C=C1\c2ccccc2CC(O)c2ccccc21 (stereo unspecified)
OCT3 (SLC22A3) [9]
  inhibition at 5 min, 20 µM: 86.7%

## CN(C)CCC=C1c2ccccc2CC(O)c2ccccc21 (stereo unspecified)
OCT3 (SLC22A3) [9]
  inhibition at 5 min, 20 µM: 79.3%

## N=C(NCCCCCCNC(=N)NC(=N)Nc1ccc(Cl)cc1)NC(=N)Nc1ccc(Cl)cc1
[10]
  inhibition: 105%

## COc1ccc2[nH]cc(CCN)c2c1 [5-METHOXYTRYPTAMINE]
OCT3 (SLC22A3) [1]
  uptake ratio at 2 min: 2.2
OCT1
  uptake ratio: 3.8
OCT2
  uptake ratio at 2 min: 7.1

## CCCCC(CC)CNC(=N)NC(=N)NCCCCCCNC(=N)NC(=N)NCC(CC)CCCC (stereo unspecified) [ALEXIDINE]
OCT3 (SLC22A3) [9]
  inhibition at 5 min, 20 µM: 103%
OCT3 (SLC22A3) [8]
  inhibition at 2 min: 98.1%

## CN(C)CCC=C1c2ccccc2CCc2ccccc21 [AMITRIPTYLINE]
OCT3 (SLC22A3) [9]
  inhibition at 5 min, 20 µM: 80%

## [H]/N=C(\N/C(=N/[H])NCCCCCCNC(=N)NC(=N)Nc1ccc(Cl)cc1)Nc1ccc(Cl)cc1 [CHLORHEXIDINE]
OCT3 (SLC22A3) [9]
  inhibition at 5 min, 20 µM: 98.4%
OCT3 (SLC22A3) [8]
  inhibition at 2 min: 98.4%

## CC(C)(C)NCC(O)c1ccc(O)c(O)c1 (stereo unspecified) [COLTEROL]
OCT3 (SLC22A3) [1]
  uptake ratio at 2 min: 53

## C[C@@H](Oc1cc(-c2cnn(C3CCNCC3)c2)cnc1N)c1c(Cl)ccc(F)c1Cl [CRIZOTINIB]
OCT3 (SLC22A3) [9]
  inhibition at 5 min, 20 µM: 90.4%

## C[N+]1(C)CCN(c2ccccc2)CC1 [DIMETHYLPHENYLPIPERAZINIUM]
OCT3 (SLC22A3) [1]
  uptake ratio at 2 min: 46

## CC[C@@H](CO)NCCN[C@@H](CC)CO [ETHAMBUTOL]
OCT3 (SLC22A3) [2]
  inhibition at 5 min, 20 µM: 7%
OCT3 (SLC22A3) [3]
  inhibition at 5 min, 20 µM: -13%
OCT3 (SLC22A3) [6]
  inhibition at 5 min, 20 µM: -7%
OCT3 (SLC22A3) [5]
  inhibition at 5 min, 20 µM: -1%

## CN[C@@H]1CCc2[nH]c3ccc(C(N)=O)cc3c2C1 [FROVATRIPTAN]
OCT3 (SLC22A3) [1]
  uptake ratio at 2 min: 7.7
OCT1
  uptake ratio: 30.3
OCT2
  uptake ratio at 2 min: 10.8

## CN(C)c1ccc(C(=C2C=CC(=[N+](C)C)C=C2)c2ccc(N(C)C)cc2)cc1 [GENTIAN VIOLET]
OCT3 (SLC22A3) [9]
  inhibition at 5 min, 20 µM: 81.4%
OCT3 (SLC22A3) [8]
  inhibition at 2 min: 107%
[10]
  inhibition: 116%

## CC(C)[N+]1(C)[C@@H]2CC[C@H]1C[C@@H](OC(=O)C(CO)c1ccccc1)C2 (stereo partly specified) [IPRATROPIUM]
OCT3 (SLC22A3) [9]
  inhibition at 5 min, 20 µM: 79.1%
OCT3 (SLC22A3) [8]
  inhibition at 2 min: 47.8%

## CCC(NC(C)C)C(O)c1ccc(O)c(O)c1 (stereo unspecified) [ISOETHARINE]
OCT3 (SLC22A3) [1]
  uptake ratio at 2 min: 23.3

## C[N+]1(CC2CC2)CC[C@]23c4c5ccc(O)c4O[C@H]2C(=O)CC[C@@]3(O)[C@H]1C5 (stereo partly specified) [METHYLNALTREXONE]
OCT3 (SLC22A3) [1]
  uptake ratio at 2 min: 102

## CNCCC=C1c2ccccc2CCc2ccccc21 [NORTRIPTYLINE]
OCT3 (SLC22A3) [9]
  inhibition at 5 min, 20 µM: 80%

## Cc1nc2n(c(=O)c1CCN1CCC(c3noc4cc(F)ccc34)CC1)CCCC2O (stereo unspecified) [PALIPERIDONE]
OCT3 (SLC22A3) [9]
  inhibition at 5 min, 20 µM: 87.7%

## [H]/N=C(/N)N/C(=N/[H])NCCc1ccccc1 [PHENFORMIN]
OCT3 (SLC22A3) [1]
  uptake ratio at 2 min: 32.2

## CN(C)CCc1c[nH]c2ccc(Cn3cncn3)cc12 [RIZATRIPTAN]
OCT3 (SLC22A3) [1]
  uptake ratio at 2 min: 2.4
OCT1
  uptake ratio: 4.3
OCT2
  uptake ratio at 2 min: 4.1

## CC(=O)S[C@@H]1CC2=CC(=O)CC[C@]2(C)[C@H]2CC[C@@]3(C)[C@@H](CC[C@@]34CCC(=O)O4)[C@H]12 [SPIRONOLACTONE]
OCT3 (SLC22A3) [9]
  inhibition at 5 min, 20 µM: 93.9%
[10]
  inhibition: 84.2%

## Cc1ccc(O)c([C@H](CCN(C(C)C)C(C)C)c2ccccc2)c1 [TOLTERODINE]
OCT3 (SLC22A3) [9]
  inhibition at 5 min, 20 µM: 96.1%

## O=C(O[C@H]1C[C@H]2CC[C@@H](C1)[N+]21CCCC1)C(O)(c1ccccc1)c1ccccc1 [TROSPIUM]
[7]
  inhibition (INH): Active

## CN(C)CCc1c[nH]c2ccc(C[C@H]3COC(=O)N3)cc12 [ZOLMITRIPTAN]
OCT3 (SLC22A3) [1]
  uptake ratio at 2 min: 22
OCT1
  uptake ratio: 9.3
OCT2
  uptake ratio at 2 min: 1.2
